One experiment concerns the target T1, hDOR-1 (Homo sapiens, UniProt P41143).
T1 construct: purchased Amersham Biosciences; host or cells: stably transfected HEK-293 cells (membrane preparation)
Put plainly: Opioid receptor competitive binding assay, DOR. The conditions noted are these: for Ki DOR/Ki MOR: Table 12, selectivity for MOR versus DOR (3H-DPDPE, hDOR-1). The protocol:
(§1) For selected compounds, Ki for MOR, DOR, and KOR were determined according to the following procedure: Recombinant hMOR-1 membrane preps from stably transfected CHO cells and recombinant hDOR-1 membrane preps from stably transfected HEK-293 cells were purchased from Amersham Biosciences. Guinea pig cerebellum preparations were used for KOR assays.
(§2) Each microassay from an assay plate was filtered through an individual well of a Packard GF/B 96-well filter plate (glass fiber filter) to collect the membranes. Each well was washed twice with 200 μL of ice cold wash buffer (50 mM Tris, pH 7.4). The filter plate was allowed to dry overnight, the back was sealed, and Packard Bioscience Microscint PS scintillation fluid (75 μL) was added to each well, which was then counted for ^3H for 2 minutes using a Packard Bioscience TopCount scintillation counter plate reader.
(§3) Each compound was assayed at 8 concentrations, using half-log serial dilutions. Each concentration was tested in triplicate, and the ^3H cpm were averaged.
(§4) This concentration was determined experimentally by scintillation counting an aliquot of the radioligand stock solution used in the assay.
(§5) Kd=the binding constant for the radioligand.
(§6) This triplicate experiment was repeated three times for the MOR and twice for the DOR and the KOR.

Another experiment addresses T2, hMOR-1 (Homo sapiens, UniProt P35372).
T2 construct: purchased Amersham Biosciences; host or cells: stably transfected CHO cells (membrane preparation)
Description: Opioid receptor competitive binding assay, MOR (3H-DAMGO). The protocol: as §1, §2, §3, §4, §5, §6

Another experiment concerns the target T3, KOR (Cavia porcellus, UniProt P41144).
T3 construct: from tissue; host or cells: guinea pig cerebellum preparation
Put plainly: Opioid receptor competitive binding assay, KOR (3H-U-69,593). The settings on record: for Ki KOR/Ki MOR: Table 12, selectivity for MOR versus KOR. Details: species or system guinea pig. The procedure:
as §1, §2, §3, §6

The mark [1] stands for this setting: Ki DOR, Table 6, footnote:, hDOR-1 stably transfected into HEK-293 cells, errors two standard deviations.
The mark [2] stands for this setting: Ki MOR, Table 3, 3H-DAMGO, hMOR-1 stably transfected into CHO cells, errors 95% confidence interval.
The mark [3] stands for this setting: Ki KOR, Table 9, 3H-U-69,593, guinea pig cerebellum preps, errors two standard deviations.

This is an account of results in patent US7223888B2, “Mu opioid receptor ligands: methods of use and synthesis” (President and Fellows of Harvard College, priority 2002, dated 2007).

Molecules are shown by their SMILES. Where two headings read alike, the source gives them in different places.

As to `NC(=O)C(Cc1ccccc1)NC(=O)C(Cc1ccccc1)C(O)/C=C/CC(O)C(N)Cc1ccc(O)cc1` (single isomer, unassigned) [(S,R,R,R)-2, (E)-8-Amino-2-benzyl-3,7-dihydroxy-9-(4-hydroxy-phenyl)-non-4-enoic acid (1-carbamoyl-2-phenyl-ethyl)-amide], the results for the Ki on hDOR-1 (setting [1]), on hMOR-1 (setting [2]) and on KOR (setting [3]) were 1400 ± 300 nM, 67 ± 38 nM and 1200 ± 100 nM, respectively. The “Ki DOR/Ki MOR” value at hDOR-1 stood at 21. In addition, on KOR, the “Ki KOR/Ki MOR” value is 18.
`NC(=O)C(Cc1ccccc1)NC(=O)C(Cc1ccccc1)C(O)CCCC(O)C(N)Cc1ccc(O)cc1` (single isomer, unassigned) [(S,R,R,R)-6, 8-Amino-2-benzyl-3,7-dihydroxy-9-(4-hydroxy-phenyl)-nonanoic acid (1-carbamoyl-2-phenyl-ethyl)-amide]: the inhibition constant (Ki) on hMOR-1 (read-out: Ki MOR) worked out at 120 ± 30 nM; on KOR (read-out: Ki KOR), 1500 ± 700 nM.
In the case of `NC(=O)C(Cc1ccccc1)NC(=O)C(Cc1ccccc1)C(O)/C=C\CC(O)C(N)Cc1ccc(O)cc1` (single isomer, unassigned) [(S,R,R,R)-9, (Z)-8-Amino-2-benzyl-3,7-dihydroxy-9-(4-hydroxy-phenyl)-non-4-enoic acid (1-carbamoyl-2-phenyl-ethyl)-amide], the Ki on hDOR-1 (setting [1]) stood at 9200 ± 2100 nM; at hMOR-1 (setting [2]), 400 ± 110 nM; on KOR (setting [3]) it was 5800 ± 1800 nM. In addition, the “Ki DOR/Ki MOR” value on hDOR-1 is recorded as 23. The “Ki KOR/Ki MOR” value at KOR is on record as 15.
In the same order, the values of `NC(Cc1ccc(O)cc1)C(O)C/C=C/C(O)C(Cc1ccccc1)C(=O)NCCc1ccccc1` (single isomer, unassigned) [(S,R,R,R)-10, (E)-8-Amino-2-benzyl-3,7-dihydroxy-9-(4-hydroxy-phenyl)-non-4-enoic acid phenethyl-amide] are 2900 ± 600 nM, 53 ± 6 nM, 2800 ± 600 nM, 55 and 53.
In the case of `NC(Cc1ccc(O)cc1)C(O)C/C=C/C(O)C(Cc1ccccc1)C(=O)NC(CO)Cc1ccccc1` (single isomer, unassigned) [(S,R,R,R)-11, (E)-8-Amino-2-benzyl-3,7-dihydroxy-9-(4-hydroxy-phenyl)-non-4-enoic acid (1-hydroxymethyl-2-phenyl-ethyl)-amide], the Ki at hDOR-1 (setting [1]) came out at 960 ± 100 nM; at hMOR-1 (setting [2]), 28 ± 5 nM; at KOR (setting [3]), 3400 ± 1300 nM. Besides, the “Ki DOR/Ki MOR” value at hDOR-1 is 34. For the same compound, the “Ki KOR/Ki MOR” value on KOR worked out at 120.
With `C=CC(O)C(Cc1ccccc1)NC(=O)C(Cc1ccccc1)C(O)/C=C/CC(O)C(N)Cc1ccc(O)cc1` (single isomer, unassigned) [(S,R,R,R)-12, (E)-8-Amino-2-benzyl-3,7-dihydroxy-9-(4-hydroxy-phenyl)-non-4-enoic acid (1-benzyl-2-hydroxy-but-3-enyl)-amide], the Ki on hDOR-1 (setting [1]) was 570 ± 280 nM; on hMOR-1 (setting [2]) it was 37 ± 1 nM; on KOR (setting [3]), 970 ± 80 nM. At hDOR-1, the “Ki DOR/Ki MOR” value is reported as 15. The “Ki KOR/Ki MOR” value at KOR is given as 26.
In the same order, the values of `NC(=O)C(Cc1ccccc1)NC(=O)C(Cc1ccccc1)C(O)/C=C/CC(O)C(N)Cc1ccc(O)cc1` (single isomer, unassigned) [(S,R,S,R)-2, (E)-8-Amino-2-benzyl-3,7-dihydroxy-9-(4-hydroxy-phenyl)-non-4-enoic acid (1-carbamoyl-2-phenyl-ethyl)-amide] are 850 ± 30 nM, 160 ± 40 nM, 2900 ± 800 nM, 5 and 18.
On to `NC(=O)C(Cc1ccccc1)NC(=O)C(Cc1ccccc1)C(O)CCCC(O)C(N)Cc1ccc(O)cc1` (single isomer, unassigned) [(S,R,S,R)-6, 8-Amino-2-benzyl-3,7-dihydroxy-9-(4-hydroxy-phenyl)-nonanoic acid (1-carbamoyl-2-phenyl-ethyl)-amide], for which the values for the Ki on hDOR-1 (read-out: Ki DOR), at hMOR-1 (read-out: Ki MOR) and on KOR (read-out: Ki KOR) were 4000 ± 100 nM, 190 ± 20 nM and 6600 ± 3500 nM, respectively.
Take `NC(=O)C(Cc1ccccc1)NC(=O)C(Cc1ccccc1)C(O)/C=C\CC(O)C(N)Cc1ccc(O)cc1` (single isomer, unassigned) [(S,R,S,R)-9, (Z)-8-Amino-2-benzyl-3,7-dihydroxy-9-(4-hydroxy-phenyl)-non-4-enoic acid (1-carbamoyl-2-phenyl-ethyl)-amide]: the Ki is 10000 ± 2000 nM at hDOR-1 (setting [1]), 260 ± 70 nM on hMOR-1 (setting [2]) and 1700 ± 400 nM on KOR (setting [3]). The “Ki DOR/Ki MOR” value on hDOR-1 worked out at 39. Also, the “Ki KOR/Ki MOR” value on KOR is recorded as 7.
For `NC(=O)C(Cc1ccccc1)NC(=O)C(Cc1ccccc1)C(O)/C=C/CC(O)C(N)Cc1ccc(O)cc1` (single isomer, unassigned) [(S,S,R,R)-2, (E)-8-Amino-2-benzyl-3,7-dihydroxy-9-(4-hydroxy-phenyl)-non-4-enoic acid (1-carbamoyl-2-phenyl-ethyl)-amide], the Ki is 1200 ± 100 nM at hDOR-1 (setting [1]), 25 ± 5 nM at hMOR-1 (setting [2]) and 1200 ± 700 nM on KOR (setting [3]). For the same compound, on hDOR-1, the “Ki DOR/Ki MOR” value is listed as 45. Besides, at KOR, the “Ki KOR/Ki MOR” value came to 48.
For the compound `NC(=O)C(Cc1ccccc1)NC(=O)C(Cc1ccccc1)C(O)CCCC(O)C(N)Cc1ccc(O)cc1` (single isomer, unassigned) [(S,S,R,R)-6, 8-Amino-2-benzyl-3,7-dihydroxy-9-(4-hydroxy-phenyl)-nonanoic acid (1-carbamoyl-2-phenyl-ethyl)-amide], the results for the Ki on hDOR-1 (read-out: Ki DOR), on hMOR-1 (setting [2]) and at KOR (read-out: Ki KOR) were 3000 ± 100 nM, 95 ± 61 nM and 730 ± 270 nM, respectively.
As for `NC(=O)C(Cc1ccccc1)NC(=O)C(Cc1ccccc1)C(O)/C=C\CC(O)C(N)Cc1ccc(O)cc1` (single isomer, unassigned) [(S,S,R,R)-9, (Z)-8-Amino-2-benzyl-3,7-dihydroxy-9-(4-hydroxy-phenyl)-non-4-enoic acid (1-carbamoyl-2-phenyl-ethyl)-amide], the inhibition constant (Ki) worked out at 4300 ± 1400 nM on hDOR-1 (setting [1]), 74 ± 12 nM at hMOR-1 (setting [2]) and 1600 ± 100 nM at KOR (setting [3]). Moreover, the “Ki DOR/Ki MOR” value on hDOR-1 was 58. On KOR, the “Ki KOR/Ki MOR” value is 22.
Consider `NC(Cc1ccc(O)cc1)C(O)C/C=C/C(O)C(Cc1ccccc1)C(=O)NCCc1ccccc1` (single isomer, unassigned) [(S,S,R,R)-10, (E)-8-Amino-2-benzyl-3,7-dihydroxy-9-(4-hydroxy-phenyl)-non-4-enoic acid phenethyl-amide], for which the Ki on hDOR-1 (setting [1]) amounted to 1200 ± 300 nM; at hMOR-1 (setting [2]) it was 29 ± 8 nM; at KOR (setting [3]), 3400 ± 300 nM. Also, the “Ki DOR/Ki MOR” value at hDOR-1 was 42. For the same compound, on KOR, the “Ki KOR/Ki MOR” value stood at 120.
For `NC(Cc1ccc(O)cc1)C(O)C/C=C/C(O)C(Cc1ccccc1)C(=O)NC(CO)Cc1ccccc1` (single isomer, unassigned) [(S,S,R,R)-11, (E)-8-Amino-2-benzyl-3,7-dihydroxy-9-(4-hydroxy-phenyl)-non-4-enoic acid (1-hydroxymethyl-2-phenyl-ethyl)-amide], the Ki at hDOR-1 (setting [1]) amounted to 620 ± 80 nM; at hMOR-1 (setting [2]) it was 16 ± 1 nM; on KOR (setting [3]) it was 2900 ± 400 nM. Further, the “Ki DOR/Ki MOR” value on hDOR-1 came to 39. Moreover, the “Ki KOR/Ki MOR” value on KOR is given as 180.
The matching figures for `C=CC(O)C(Cc1ccccc1)NC(=O)C(Cc1ccccc1)C(O)/C=C/CC(O)C(N)Cc1ccc(O)cc1` (single isomer, unassigned) [(S,S,R,R)-12, (E)-8-Amino-2-benzyl-3,7-dihydroxy-9-(4-hydroxy-phenyl)-non-4-enoic acid (1-benzyl-2-hydroxy-but-3-enyl)-amide]: 620 ± 70 nM, 22 ± 4 nM, 770 ± 130 nM, 28 and 35.
For `NC(=O)C(Cc1ccccc1)NC(=O)C(Cc1ccccc1)C(O)/C=C/CC(O)C(N)Cc1ccc(O)cc1` (single isomer, unassigned) [(S,S,R,S)-2, (E)-8-Amino-2-benzyl-3,7-dihydroxy-9-(4-hydroxy-phenyl)-non-4-enoic acid (1-carbamoyl-2-phenyl-ethyl)-amide], the Ki is 6900 ± 1300 nM on hDOR-1 (setting [1]), 79 ± 23 nM on hMOR-1 (setting [2]) and 1300 ± 100 nM at KOR (setting [3]). The “Ki DOR/Ki MOR” value at hDOR-1 was determined as 86. For the same compound, the “Ki KOR/Ki MOR” value at KOR was 16.
The matching figures for `NC(=O)C(Cc1ccccc1)NC(=O)C(Cc1ccccc1)C(O)/C=C/CC(O)C(N)Cc1ccc(O)cc1` (single isomer, unassigned) [(S,S,S,R)-2, (E)-8-Amino-2-benzyl-3,7-dihydroxy-9-(4-hydroxy-phenyl)-non-4-enoic acid (1-carbamoyl-2-phenyl-ethyl)-amide]: 510 ± 10 nM, 8.8 ± 0.7 nM, 1300 ± 500 nM, 57 and 150.
Regarding `NC(=O)C(Cc1ccccc1)NC(=O)C(Cc1ccccc1)C(O)CCCC(O)C(N)Cc1ccc(O)cc1` (single isomer, unassigned) [(S,S,S,R)-6, 8-Amino-2-benzyl-3,7-dihydroxy-9-(4-hydroxy-phenyl)-nonanoic acid (1-carbamoyl-2-phenyl-ethyl)-amide], the Ki on hMOR-1 (setting [2]) was found to be 98 ± 31 nM; on KOR (read-out: Ki KOR), 3900 ± 1700 nM.
